US7612107B2, “Treatment and inhibition of disease conditions using flexible heteroarotinoids” (The Board of Regents of the University of Oklahoma, priority 2005, dated 2009)
Where two headings read alike, the source gives them in different places.

What was measured:
dorsal skin = test: Topical irritancy in Skh hairless mice; format: in vivo
Description: Female Skh hairless mice, 6-8 weeks old, were treated topically on the dorsal skin for 4 days over a 2-log concentration dose range with various compounds. Retinoic acid receptor-Hets were evaluated in A, while retinoic acid receptor-independent Flex-Hets were evaluated in B. Daily flaking and abrasion scores were combined to calculate a single cutaneous toxicity score for each mouse. Each treatment group consisted of 4 mice, and group averages were used to plot cutaneous toxicity against doses of the compounds.
Topical irritancy was evaluated according to published procedures (29). Briefly, female Skh hairless mice, 6-8 weeks old, were treated topically on the dorsal skin for 4 days over a 2-log concentration dose range with various compounds. Daily flaking and abrasion scores were combined to calculate a single cutaneous toxicity score for each mouse. Each treatment group consists of 4 mice, and group averages are used to plot cutaneous toxicity against dose of the retinoid compound.

OVCAR-3 xenograft tumors = test: OVCAR-3 xenograft tumor growth model; format: in vivo, mouse; details: 10 mg/kg/day by gavage, 5 days per week, 4 weeks
Description: Groups of 5 mice bearing OVCAR-3 xenografted tumors were gavaged daily with the indicated drugs in sesame oil (▪ closed square) or with sesame oil alone (∘ open circle). Tumor volumes were measured in 3 dimensions with calipers weekly. Each data point represents the average and standard error of the tumor volumes on the indicated treatment day relative to the tumor volume on day zero. Nu/nu mice were injected subcutaneously with one million OVCAR-3 cells and arbitrarily divided into five groups of six mice each. After three weeks of tumor growth, the animals were gavaged with sesame oil, 10 mg/kg/day 4-HPR, or the indicated Het five times per week for four weeks and the tumors were measured once per week. The tumor sizes were averaged and divided by the average size for each group on the day that treatment was initiated (day 0).
The OVCAR-3 cultures were maintained in RPMI media supplemented with 10% fetal bovine serum. All animal experimentation described in this manuscript was conducted in accord with accepted standards of humane animal care. Twenty-five female NU/NU CD-1 female mice (Charles Rivers Laboratories) were housed in a laminar flow room under sterile conditions at 83-85° F. The mice were quarantined for one week prior to the beginning of the study and were allowed access to autoclaved food (Purina 5001 mouse/rat sterilizable diet, St. Louis, Mo.) and water ad libitum. OVCAR-3 cells in log phase growth were harvested by trypsinization, resuspended in RPMI culture medium, and centrifuged at 3,000 rpm for 10 min. The pellets were resuspended in RPMI culture medium at a concentration of 7×10^6 cells/ml before implantation into mice. Animals were injected with 3.5×10^6 cells into the right scapular region with a 24-gauge needle/1 cc tuberculin syringe. Twenty-four hours after tumor implantation, animals were randomized into 5 groups of 5 animals each.
The Hets SHet50, SHetA2 and SHetA4 were synthesized and their receptor specificity determined as previously described (17,19). The 4-HPR compound was a gift from R.W. Johnson Pharmaceutical Research Institute, Raritan, N.J. All retinoids were dissolved in super refined sesame oil (Croda, Inc., Parsippany, N.J.) and stored at −80° C. Since the retinoids are light sensitive, all manipulations involving retinoids were performed under subdued lighting. […] Tumors were measured with calipers weekly, and tumor volumes were calculated using the formula: volume=length×width×height. Tumor growth was determined by the dividing the volume of the tumor at each weekly measurement by the volume on the first day of treatment. Animal weights and clinical signs of overall health status and cutaneous toxicities were recorded weekly.

[1] = tested on: organotypic cultures of human ovarian cancer cell lines and primary cultures; test: Ovarian carcinoma organotypic cultures (TUNEL, histology); format: cell-based; details: 1 μM retinoid in media
Description: FIG. 17. Retinoid effects on ovarian carcinoma organotypic cultures. Organotypic cultures of OVCAR-3 (A, B, E, F, I and J), Caov-3 (C and G), SK-OV-3 (D and H), and O2 (K and L) were grown in the absence (−, top row and K) or presence (+, middle row and I, J and L) of retinoid HetA4 at a concentration of 1 μM in the media. All sections were stained with H&E except for […], which was stained with PAS to detect glycoproteins and glandular differentiation, and J, which was stained with the TUNEL assay to detect apoptosis. All magnifications are 40×.
To test our hypotheses, we evaluated the effects of clinically achievable concentrations of 4-HPR and Flex-Hets on growth, differentiation and apoptosis in ovarian tissue. A series of compounds with a variety of receptor activation profiles were evaluated. In order to evaluate therapeutic effects, we developed an organotypic culture model of ovarian tumors by growing established cell lines and primary cultures inside collagen gels. Monolayer cultures of cells are not accurate representations of in vivo tissue because they lack the types of interactions that cells have with other cells and with the extracellular matrix in vivo. These interactions are known to influence gene expression and thus the constitution and behavior of cells. In our organotypic model, the growth of tumor cells inside the collagen allows a representation of tumors that have invaded stromal tissue. In the presence of fibroblasts, established cell lines and primary cultures of ovarian cancer formed colonies inside the collagen, while normal or benign ovarian epithelial cells remained as single cells inside the collagen. Human ovarian cancer cell lines (OVCAR-3, Caov-3, SK-OV-3, A2780, UCI 101) and primary human cultures (borderline ovarian tumor (O1), serous papillary tumor (O2), benign ovarian cyst (O3)) were cultured inside and on top of a collagen gel seeded with 3T3 fibroblasts for one week. After further incubation in the presence or absence of 1 μM retinoid (media concentration) for 3, 7 or 14 days, cultures were fixed and sectioned for immunohistochemical analysis.
The TUNEL assay was used to evaluate apoptosis in fixed, paraffin embedded, cut sections of the treated and control cultures (FIG. 17). […] These two cellular outcomes appeared to be mutually exclusive.

[2] = tested on: human polycystic kidney disease cells; test: 3-D model of polycystic kidney disease, cyst formation; format: cell-based; details: 4 μM, 3 weeks
Description: FIG. 21. Effects of Flex-Hets on formation of cysts in cultured polycystic kidney disease cells. A primary culture of polycystic kidney cells were grown inside a mixture of collagen I and matrigel and treated with prostaglandin E2 to induce cyst formation. Parallel cultures were treated with 10 micromolar SHetA3 and SHetA4.
The 3-D model of the PKD was developed as described here. Single-cell suspensions of the PCKD cell lines was re-suspended in a 4° C. solution mixture containing rat tail collagen I (Collaborative Biomedical Products, Bedford, Mass.), matrigel (Becton Dickinson) and MEM. The suspension was poured into Falcon cell culture inserts with transparent membranes containing 0.4 μm pores (Becton Dickinson, Franklin Lakes, N.J.) and placed at 37° C. Treatment of cultures was initiated after 1 day of growth and replenished with medium once in every two days. Drugs (Flex-Hets at 4 μM Conc.) and hormones (PGE2 at 25 ng/ml) were administered into the medium surrounding the insert. Untreated control cultures were grown in the same conditions as that of the treated cultures. Drug treatment was carried out for 3 weeks before their effects on growth and inhibition were evaluated.

[3] = more potent than RA; cited from earlier work
Raldh2-/- embryos = details: for No. of −/− rescued / No. of −/− unrescued: E10.25; for Teratogenesis: mouse, in vivo, po
Description: Briefly, retinoids were dissolved in corn oil and administered orally to timed-pregnant Raldh2_/_mice at 12-h intervals on E7.25, E7.75, and E8.25. Dosages varied from 0.025 to 25 mg/kg. At E10.25, embryos were analyzed morphologically to determine whether Raldh2_/_embryos were rescued or whether wild-type embryos had suffered teratogenesis. Detection of embryonic RA was performed in situ in embryos carrying the RARE-lacZ RA-reporter gene by staining for beta-galactosidase activity for 10 h (45).
A mouse model that lacks retinaldehyde dehydrogenase (Raldh2) due to null mutations was used to test the ability of Flex-Hets to substitute for retinoic acid (RA) and induce birth defects. […] We examined the relative ability of all-trans-RA, 9-cis-RA, receptor-specific synthetic retinoids and retinoic acid receptor independent Flex-Hets to rescue the Raldh2_/_embryonic lethal phenotype.

[4] = topical, dorsal skin, 4 days, 2-log dose range

SMILES: CCOC(=O)c1ccc(NC(=O)Nc2ccc3c(c2)C(C)(C)CC(C)(C)S3)cc1 [SHetA4]
- Topical irritancy (cutaneous toxicity score) (dorsal skin; mouse, in vivo): did not induce topical irritancy
- Growth of xenograft tumors versus sesame oil control (OVCAR-3 xenograft tumors): significantly inhibited the growth
- Induction of apoptosis (TUNEL) in organotypic cultures [1]: Apoptosis was induced
- Differentiated phenotype (tubular structures) [2]: induced the formation of several branched tubular structures
- Cyst formation ([2]; PGE2 25 ng/ml): completely eliminated cyst formation

SMILES: C/C(=C\c1ccc(C(=O)O)cc1)c1ccc2c(c1)C(C)(C)CCC2(C)C [TTNPB]
- Potency relative to RA [3]: 10 fold

SMILES: CC1(C)CCOc2ccc(C(=O)Oc3ccc(C=NNC(N)=S)cc3)cc21 [OHet72]
- Topical irritancy (cutaneous toxicity score) (dorsal skin; mouse, in vivo): did not induce topical irritancy
- Rescue of Raldh2−/− embryos (in words) (Raldh2-/- embryos; 2.5 mg/kg): no rescue
- Rescue of Raldh2−/− embryos (in words) (Raldh2-/- embryos; 10 or 25 mg/kg): no rescue
- No. of −/− rescued (Raldh2-/- embryos; Dose 2.5 mg/kg oral): 0
- No. of −/− unrescued (Raldh2-/- embryos; Dose 2.5 mg/kg oral): 4
- No. of −/− rescued (Raldh2-/- embryos; Dose 10 mg/kg oral): 0
- No. of −/− unrescued (Raldh2-/- embryos; Dose 10 mg/kg oral): 3
- No. of −/− rescued (Raldh2-/- embryos; Dose 25 mg/kg oral): 0
- No. of −/− unrescued (Raldh2-/- embryos; Dose 25 mg/kg oral): 5
- Teratogenesis (Raldh2-/- embryos; 2.5 mg/kg): 0
- Teratogenesis (Raldh2-/- embryos; 10 mg/kg): 0
- Teratogenesis (Raldh2-/- embryos; 25 mg/kg): 0

SMILES: COC(=O)c1ccc(C(=O)Nc2ccc3c(c2)C(C)(C)CC(C)(C)S3)cc1 [SHet50, reference compound]
- Growth of xenograft tumors versus sesame oil control (OVCAR-3 xenograft tumors): significantly inhibited the growth
- Induction of apoptosis (TUNEL) in organotypic cultures [1]: Apoptosis was induced

SMILES: CC(C=CC=C(C)c1ccc2c(c1)C(C)(C)CS2)=CC(=O)O [SHet65]
- Topical irritancy (cutaneous toxicity score) (dorsal skin; [4]): induced topical irritancy scores in a dose-responsive manner

SMILES: CC1=C(/C=C/C(C)=C/C=C/C(C)=C/C(=O)Nc2ccc(O)cc2)C(C)(C)CCC1 [4-HPR, reference compound]
- Growth of xenograft tumors versus sesame oil control (OVCAR-3 xenograft tumors): significantly inhibited the growth
- Induction of apoptosis (TUNEL) in organotypic cultures [1]: Apoptosis was induced

SMILES: CC1=C(/C=C/C(C)=C/C=C/C(C)=C/C(=O)O)C(C)(C)CCC1 [All-trans-RA]
- No. of −/− rescued (Raldh2-/- embryos; Dose 1.0 mg/kg oral): 0
- No. of −/− unrescued (Raldh2-/- embryos; Dose 1.0 mg/kg oral): 7
- No. of −/− rescued (Raldh2-/- embryos; Dose 2.5 mg/kg oral): 13
- No. of −/− unrescued (Raldh2-/- embryos; Dose 2.5 mg/kg oral): 1
- Teratogenesis (Raldh2-/- embryos; 1 mg/kg): 0
- Teratogenesis (Raldh2-/- embryos; 2.5 mg/kg): 0

SMILES: CC(Cc1ccc(C(=O)O)cc1)c1ccc2c(c1)C(C)(C)CS2 (stereo not drawn) [SHet100]
- Rescue of Raldh2−/− embryos (in words) (Raldh2-/- embryos; 0.5 mg/kg): typical rescue phenotype
- No. of −/− rescued (Raldh2-/- embryos; Dose 0.025 mg/kg oral): 0
- No. of −/− unrescued (Raldh2-/- embryos; Dose 0.025 mg/kg oral): 2
- No. of −/− rescued (Raldh2-/- embryos; Dose 0.25 mg/kg oral): 2
- No. of −/− unrescued (Raldh2-/- embryos; Dose 0.25 mg/kg oral): 0
- No. of −/− rescued (Raldh2-/- embryos; Dose 0.5 mg/kg oral): 6
- No. of −/− unrescued (Raldh2-/- embryos; Dose 0.5 mg/kg oral): 1
- Teratogenesis (Raldh2-/- embryos; 0.025 mg/kg): 0
- Teratogenesis (Raldh2-/- embryos; 0.25 mg/kg): 0
- Teratogenesis (Raldh2-/- embryos; 0.5 mg/kg): 0
- Teratogenesis (Raldh2-/- embryos; 2.5 mg/kg): 11

SMILES: CC1=C(/C=C/C(C)=C\C=C\C(C)=C\C(=O)O)C(C)(C)CCC1 [9-cis-RA]
- No. of −/− rescued (Raldh2-/- embryos; Dose 2.5 mg/kg oral): 2
- No. of −/− unrescued (Raldh2-/- embryos; Dose 2.5 mg/kg oral): 8
- No. of −/− rescued (Raldh2-/- embryos; Dose 10 mg/kg oral): 6
- No. of −/− unrescued (Raldh2-/- embryos; Dose 10 mg/kg oral): 1
- Teratogenesis (Raldh2-/- embryos; 2.5 mg/kg): 0
- Teratogenesis (Raldh2-/- embryos; 10 mg/kg): 0
- Induction of apoptosis (TUNEL) in organotypic cultures [1]: Apoptosis was induced

SMILES: CCOC(=O)c1ccc(OC(=O)c2ccc3c(c2)C(C)(C)CCN3C(C)C)cc1 [NHet17]
- Topical irritancy (cutaneous toxicity score) (dorsal skin; [4]): induced topical irritancy scores in a dose-responsive manner
